Data set [1] has as its system NCI-H1299. Briefly: Potency index, ratio of IC50 for Palbociclib to IC50 for test compound for antiproliferative activity against human H1299 cells assessed as reduction in cell viability after 72 hrs by MTT assay. In kind it is functional.
For data set [2], the system named is MDA-MB-231. Briefly: Induction of apoptosis in human MDA-MB-231 cells assessed as early apoptotic cells at 10 uM after 24 hrs by Annexin-V/PI-staining based flow cytometry (reference value: 2.67%). Format: functional. A general note: In flow cytometry, cells or beads pass a laser one at a time.
Data set [3] concerns MDA-MB-231. Briefly: Induction of cell cycle arrest in human MDA-MB-231 cells assessed as accumulation at G1 phase at 0.75 uM after 12 hrs by propidium iodide staining-based flow cytometric analysis (reference value: 53.11%). Format: functional.
In data set [4] the target is Cyclin-dependent kinase 4/6 (Homo sapiens) (UniProt P11802+Q00534). The data set is described as follows: Inhibition of CDK4/6 in human MDA-MB-231 cells assessed as reduction in Rb phosphorylation at Ser780 after 24 hrs by western blot analysis. As to conditions: dose 0.5-4 µM. Format: cell-based.
Data set [5] has as its system MDA-MB-231. Briefly: Induction of cell cycle arrest in human MDA-MB-231 cells assessed as accumulation at S phase at 0.375 uM after 12 hrs by propidium iodide staining-based flow cytometric analysis (reference value: 23.71%). In kind it is functional.
Data set [6] concerns L02. The data set is described as follows: Cytotoxicity against human L02 cells measured upto 20 uM after 72 hrs by MTT assay. As to conditions: l02, 72 h. Format: cell-based. Background: Tetrazolium assays rely on reduction of a dye to a coloured formazan, in cell work by metabolically active cells.
The test system of data set [7] is MDA-MB-231. Briefly: Induction of cell cycle arrest in human MDA-MB-231 cells assessed as accumulation at G1 phase at 1.5 uM after 12 hrs by propidium iodide staining-based flow cytometric analysis (reference value: 53.11%). Format: functional.
Data set [8] is described as follows: Inhibition of clone formation in human MDA-MB-231 cells at 0.625 uM after 14 days by crystal violet staining based-colony formation assay. In kind it is functional. As to conditions: MDA-MB-231, 336 h, time 14 day.
The subject of data set [9] is MDA-MB-231. The data set is described as follows: Induction of apoptosis in human MDA-MB-231 cells assessed as late apoptotic cells at 10 uM after 24 hrs by Annexin-V/PI-staining based flow cytometry (reference value: 3.02%). In kind it is functional.
Data set [10] concerns MCF7. Briefly: Potency index, ratio of IC50 for Palbociclib to IC50 for test compound for antiproliferative activity against human MCF7 cells assessed as reduction in cell viability after 72 hrs by MTT assay. In kind it is functional.
Data set [11] concerns the target CDK6/cyclin D3 (Homo sapiens, UniProt Q00534). The data set is described as follows: Inhibition of CDK6/Cyclin D3 (unknown origin) by mobility shift assay. Format: protein-complex assay.
In data set [12] the test system is MDA-MB-231. Briefly: Induction of apoptosis in human MDA-MB-231 cells assessed as late apoptotic cells at 2.5 uM after 24 hrs by Annexin-V/PI-staining based flow cytometry (reference value: 3.02%). In kind it is functional.
For data set [13], the system named is MDA-MB-231. Briefly: Antitumor activity against human MDA-MB-231 cells xenografted in BALB/c mouse assessed as tumor growth inhibition at 80 mg/kg, po measured every 3 days for 21 days. In kind it is functional. To be noted: MDA-MB-231, po, 504 h, time 21 day, read-out: TGI. A general note: In xenograft studies the graft and the host belong to different species.

Data set [14] deals with MDA-MB-453. The data set is described as follows: Antiproliferative activity against human MDA-MB-453 cells assessed as reduction in cell viability after 72 hrs by MTT assay. Format: functional, cell-based. As to conditions: MDA-MB-453, 72 h.

The structures appear in SMILES notation. pIC50: −log10 of the molar value.

Chain of Cyclin-dependent kinase 4/6 (Homo sapiens) (P11802 whole entry, looked up): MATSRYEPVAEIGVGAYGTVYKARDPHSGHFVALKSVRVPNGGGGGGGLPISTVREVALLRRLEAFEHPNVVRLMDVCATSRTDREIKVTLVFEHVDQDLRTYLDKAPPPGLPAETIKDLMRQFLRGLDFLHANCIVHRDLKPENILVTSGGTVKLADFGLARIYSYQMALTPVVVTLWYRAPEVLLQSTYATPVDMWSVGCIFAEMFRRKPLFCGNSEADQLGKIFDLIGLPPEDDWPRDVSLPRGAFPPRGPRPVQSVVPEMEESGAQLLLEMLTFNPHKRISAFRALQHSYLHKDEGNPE
Chain of Cyclin-dependent kinase 4/6 (Homo sapiens) (Q00534 whole entry, looked up): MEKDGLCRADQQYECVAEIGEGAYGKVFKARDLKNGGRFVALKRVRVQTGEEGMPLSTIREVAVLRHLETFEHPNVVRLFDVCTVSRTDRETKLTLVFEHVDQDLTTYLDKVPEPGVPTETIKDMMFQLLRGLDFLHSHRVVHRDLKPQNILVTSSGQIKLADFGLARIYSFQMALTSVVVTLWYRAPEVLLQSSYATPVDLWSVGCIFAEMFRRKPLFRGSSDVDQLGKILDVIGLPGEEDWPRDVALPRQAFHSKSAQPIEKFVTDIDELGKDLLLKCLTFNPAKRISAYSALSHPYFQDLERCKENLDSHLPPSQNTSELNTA
Chain of CDK6/cyclin D3 (P30281 whole entry): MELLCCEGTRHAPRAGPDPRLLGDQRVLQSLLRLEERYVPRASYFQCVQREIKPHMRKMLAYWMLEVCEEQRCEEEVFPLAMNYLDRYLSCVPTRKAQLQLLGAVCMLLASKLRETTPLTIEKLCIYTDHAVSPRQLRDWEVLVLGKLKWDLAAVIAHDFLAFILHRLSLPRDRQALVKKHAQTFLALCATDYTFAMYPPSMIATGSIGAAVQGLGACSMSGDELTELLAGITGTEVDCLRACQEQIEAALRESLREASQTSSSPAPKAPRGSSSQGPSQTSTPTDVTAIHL
Chain of CDK6/cyclin D3 (Q00534 whole entry): as the sequence (Q00534 whole entry, looked up) above

For the compound `CC(=O)c1c(C)c2cnc(Nc3ccc(N4CCN(C(=O)CCl)CC4)cn3)nc2n(C2CCCC2)c1=O`, the “Ratio IC50” value in data set [1] is listed as 4; in data set [10], 40. The Activity in [2] is given as 68.48%; in data set [3] it was 71%; in data set [5] it was 15.36%; in data set [6] it was “Non-Toxic”; in [7], 71.12%; in data set [9] it was 14.54%. Moreover, the Activity in data set [12] was 31.65%. Besides, the inhibition result in data set [4] was “Dose-Dependent Effect”. This compound had an inhibition at 0.625 µM in data set [8] of 100%. Also, the pIC50 in data set [11] was 7.85; in [14], 5.76. In data set [13], the inhibition in vivo at 80 mg/kg was found to be 105%.

A word on the inhibition: it is the drop in the measured response relative to a control, in per cent. In general, pIC50 refers to the IC50 on a negative log10 scale, so that one unit is a factor of ten.
